Reference: PMC3351444, “Molecular Evolution of a Peptide GPCR Ligand Driven by Artificial Neural Networks” (PLoS ONE, 2012)
Read-outs that look alike come from different tables or passages of the source. Square brackets hold non-standard residues; d marks the D form. Ends that are not written are not given here. Peptide text beside a SMILES is read from it.

Target: T1, human CMKLR1 (Homo sapiens, UniProt Q99788)
T1 construct: host or cells: HEK293A (Invitrogen), stably expressing human Gα15
T1 sequence (Q99788 1-373): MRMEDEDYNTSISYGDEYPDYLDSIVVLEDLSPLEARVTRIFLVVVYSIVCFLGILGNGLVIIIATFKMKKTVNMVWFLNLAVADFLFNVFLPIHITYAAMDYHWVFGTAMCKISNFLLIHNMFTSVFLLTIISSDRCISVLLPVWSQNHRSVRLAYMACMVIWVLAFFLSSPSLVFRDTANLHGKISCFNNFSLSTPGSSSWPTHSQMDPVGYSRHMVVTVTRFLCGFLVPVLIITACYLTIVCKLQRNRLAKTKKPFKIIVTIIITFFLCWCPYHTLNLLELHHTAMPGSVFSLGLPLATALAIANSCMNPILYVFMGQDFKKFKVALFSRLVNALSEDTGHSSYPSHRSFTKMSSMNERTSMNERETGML
Test: Ca2+ mobilization (CellLux imaging) agonist assay in HEK293A cells expressing CMKLR1 and Gα15
Assay type: cell-based
Procedure: HEK293A cells (Invitrogen) expressing CMKLR1 and Gα15 were seeded at 5*10^4 cells/well in a poly-D-lysine coated 96-well black well/clear bottom plate (BD Falcon) and cultured overnight. From eighteen to twenty-four hours later, cells were loaded with FLUO4-AM (Invitrogen). Then the cells were washed two times with C1 solution (130 mM NaCl, 5 mM KCl, 10 mM HEPES pH 7.4, 2 mM CaCl2, and 10 mM Glucose). After the final wash, a 100 µL of residual volume remained on the cells. Peptides were dissolved in 10% DMSO to a concentration of 1 mM and were diluted in C1 solution with 0.1 % BSA. They were aliquoted as 2x solutions in 96-well plates and were simultaneously transferred by the robotic system within the imager from the ligand plate to the cell plate. […] Fluorescence data was generated in duplicate and experiments were repeated for at least three times. […] For the calculation of concentration-response curves, signals of two wells receiving the same concentration of test substances were averaged and the fluorescence changes of corresponding buffer C1 wells were subtracted. Signals were normalized to background fluorescence. For the calculation of EC50 values, plots of amplitude versus concentrations were prepared in SigmaPlot 11.

[1] = Ca2+ mobilization, CMKLR1, decimal comma
[2] = Ca2+ mobilization, CMKLR1, decimal comma, NR where no EC50 is given, read-out: EC50

Compound	max response [1]	EC50 [2]	max response	EC50
YFPGQFAFK-NH2 [compound 2]	1,84 DF/F0	37.3 nM		
CC(C)C[C@@H](NC(=O)[C@H](N)Cc1ccc(O)cc1)C(=O)N1CCC[C@H]1C(=O)NCC(=O)N[C@@H](CCC(N)=O)C(=O)N[C@@H](Cc1ccccc1)C(=O)N[C@@H](C)C(=O)N[C@@H](Cc1ccccc1)C(=O)N[C@H](CO)C(=O)O [compound 98]			1,68 DF/F0	
YFPGNFAFS-NH2 [compound 6]	1,30 DF/F0			
FYPGQWAYS-NH2 [compound 20]	0,64 DF/F0	12900 nM		
CC(C)C[C@H](NC(=O)[C@H](N)Cc1ccc(O)cc1)C(=O)N1CCC[C@H]1C(=O)N[C@H](CO)C(=O)N[C@@H](CCC(N)=O)C(=O)N[C@@H](Cc1ccc(O)cc1)C(=O)N[C@@H](C)C(=O)N[C@@H](Cc1ccccc1)C(=O)N[C@H](Cc1ccccc1)C(=O)O [yLPsQYAFf] (H-[dY]LP[dS]QYAF[dF]-OH; N-terminus assumed)				0.49 ± 0.13 nM
C[C@H](NC(=O)[C@H](Cc1ccccc1)NC(=O)[C@H](CCC(N)=O)NC(=O)CNC(=O)[C@@H]1CCCN1C(=O)[C@H](CC(=O)O)NC(=O)[C@H](N)Cc1ccc(O)cc1)C(=O)N[C@@H](Cc1ccccc1)C(=O)N[C@H](CO)C(=O)O [compound 112] (H-[dY]DPGQFAF[dS]-OH; N-terminus assumed)			1,12 DF/F0	
YFPGQYAFF-NH2 [compound 1]	1,47 DF/F0	15.2 nM		
YFPGYFAFG-NH2 [compound 11]	1,41 DF/F0	2620 nM		
YFPGNFAFS-OH [compound 32]			0,89 DF/F0	
FLPGQFAFS-NH2 [compound 3]	1,77 DF/F0	41.3 nM		
WYPGNFAFS-NH2 [compound 16]	1,47 DF/F0	3840 nM		
YFPGHFAFS-OH [compound 31]			1,07 DF/F0	
C[C@H](NC(=O)[C@H](Cc1ccccc1)NC(=O)[C@H](CCC(N)=O)NC(=O)[C@H]1CCCN1C(=O)CNC(=O)[C@H](Cc1ccccc1)NC(=O)[C@@H](N)Cc1ccc(O)cc1)C(=O)N[C@@H](Cc1ccccc1)C(=O)N[C@@H](CO)C(N)=O [compound 14] (H-YFG[dP]QFAFS-NH2; N-terminus assumed)	1,34 DF/F0	3440 nM		
CC[C@@H](C)[C@@H](NC(=O)[C@H](Cc1ccccc1)NC(=O)[C@H](CCC(N)=O)NC(=O)CNC(=O)[C@@H]1CCCN1C(=O)[C@H](Cc1ccccc1)NC(=O)[C@H](N)Cc1c[nH]c2ccccc12)C(=O)N[C@@H](Cc1ccccc1)C(=O)N[C@@H](CO)C(N)=O [compound 18] (H-[dW]FPGQF[dI]FS-NH2; N-terminus assumed)	1,40 DF/F0	7130 nM		
NC(=O)CC[C@H](NC(=O)CNC(=O)[C@@H]1CCCN1C(=O)[C@@H](Cc1ccccc1)NC(=O)[C@H](N)Cc1ccccc1)C(=O)N[C@@H](Cc1ccccc1)C(=O)NCC(=O)N[C@H](Cc1ccc(O)cc1)C(=O)N[C@H](CC(N)=O)C(N)=O [compound 15] (H-[dF][dF]PGQFG[dY][dN]-NH2; N-terminus assumed)	1,47 DF/F0	3470 nM		
YFPGHFAFS-NH2 [compound 7]	1,55 DF/F0			
CC(C)C[C@H](NC(=O)[C@@H](N)Cc1ccc(O)cc1)C(=O)N1CCC[C@H]1C(=O)NCC(=O)N[C@@H](CCC(N)=O)C(=O)N[C@@H](Cc1ccccc1)C(=O)N[C@@H](C)C(=O)N[C@@H](Cc1ccccc1)C(=O)N[C@H](CO)C(=O)O [compound 33]			0,51 DF/F0	
C[C@H](NC(=O)[C@@H](Cc1ccccc1)NC(=O)[C@H](CCC(N)=O)NC(=O)CNC(=O)[C@@H]1CCCN1C(=O)[C@H](Cc1ccccc1)NC(=O)[C@@H](N)Cc1ccc(O)cc1)C(=O)N[C@@H](Cc1c[nH]c2ccccc12)C(=O)N[C@@H](CO)C(N)=O [compound 13] (H-YFPGQ[dF]AWS-NH2; N-terminus assumed)	1,22 DF/F0	3200 nM		
YFPGQFDFS-OH [compound 53]			0,93 DF/F0	
C[C@H](NC(=O)[C@@H](Cc1ccccc1)NC(=O)[C@H](CCC(N)=O)NC(=O)CNC(=O)[C@@H]1CCCN1C(=O)[C@@H](Cc1ccc(O)cc1)NC(=O)[C@H](N)Cc1ccc(O)cc1)C(=O)N[C@H](Cc1ccc(O)cc1)C(=O)N[C@H](CO)C(N)=O [compound 8] (H-[dY][dY]PGQ[dF]A[dY][dS]-NH2; N-terminus assumed)	1,31 DF/F0	1880 nM		
YYPGQYAYS-NH2 [compound 17]	1,09 DF/F0	4360 nM		
CSCC[C@H](NC(=O)[C@@H](N)Cc1ccc(O)cc1)C(=O)N1CCC[C@H]1C(=O)NCC(=O)N[C@@H](CCC(N)=O)C(=O)N[C@@H](Cc1ccccc1)C(=O)N[C@@H](C)C(=O)N[C@@H](Cc1ccccc1)C(=O)N[C@H](CO)C(=O)O [compound 40] (H-YMPGQFAF[dS]-OH; N-terminus assumed)			0,74 DF/F0	

Further lines, with some results ahead:

max response [1]	EC50 [2]	Compound	max response	EC50
1,62 DF/F0	139 nM	CC(C)C[C@H](NC(=O)[C@H](Cc1ccccc1)NC(=O)[C@H](Cc1ccc(O)cc1)NC(=O)[C@@H]1CCCN1C(=O)[C@H]1CCCN1C(=O)[C@@H]1CCCN1C(=O)[C@H](CC(C)C)NC(=O)[C@H](N)Cc1ccc(O)cc1)C(=O)N[C@H](Cc1ccccc1)C(=O)O [compound 143] (H-[dY]LP[dP]PYFL[dF]-OH; N-terminus assumed)		
0,44 DF/F0	20700 nM	WFPGQYAYS-NH2 [compound 23]		
1,7 DF/F0	302 nM	CC(C)C[C@H](NC(=O)[C@H](Cc1ccc(O)cc1)NC(=O)[C@@H](Cc1ccccc1)NC(=O)[C@@H]1CCCN1C(=O)[C@H]1CCCN1C(=O)[C@@H]1CCCN1C(=O)[C@H](CC(C)C)NC(=O)[C@@H](N)Cc1ccc(O)cc1)C(=O)N1CCC[C@H]1C(=O)O [compound 152] (H-YLP[dP]P[dF]YLP-OH; N-terminus assumed)		
1,72 DF/F0	100 nM	C[C@H](NC(=O)[C@H](Cc1ccccc1)NC(=O)[C@H](CCC(N)=O)NC(=O)CNC(=O)[C@H]1CCCN1C(=O)CNC(=O)[C@@H]1CCCN1)C(=O)N[C@@H](Cc1ccccc1)C(=O)N[C@H](CO)C(=O)O [compound 97] (H-PG[dP]GQFAF[dS]-OH; N-terminus assumed)		
1,13 DF/F0		CC(C)C[C@H](NC(=O)[C@H](N)Cc1ccc(O)cc1)C(=O)N1CCC[C@H]1C(=O)NCC(=O)N[C@@H](CCC(N)=O)C(=O)N[C@@H](Cc1ccc(O)cc1)C(=O)N[C@@H](C)C(=O)N[C@@H](Cc1ccccc1)C(=O)N[C@@H](Cc1ccccc1)C(=O)O [compound 43] (H-[dY]LPGQYAFF-OH; N-terminus assumed)		
1,73 DF/F0		CC(C)C[C@H](NC(=O)[C@@H](N)Cc1ccc(O)cc1)C(=O)N1CCC[C@H]1C(=O)NCC(=O)N[C@@H](CCC(N)=O)C(=O)N[C@@H](Cc1ccc(O)cc1)C(=O)N[C@@H](C)C(=O)N[C@@H](Cc1ccccc1)C(=O)N[C@H](CO)C(=O)O [compound 81] (H-YLPGQYAF[dS]-OH; N-terminus assumed)		
1,76 DF/F0	194 nM	C[C@H](NC(=O)[C@H](CO)NC(=O)[C@H](Cc1ccccc1)NC(=O)[C@H](C)NC(=O)[C@H](Cc1ccccc1)NC(=O)[C@H](CCC(N)=O)NC(=O)[C@@H](N)Cc1ccccc1)C(=O)N[C@@H](Cc1ccccc1)C(=O)N[C@H](CO)C(=O)O [compound 103] (H-FQFAFSAF[dS]-OH; N-terminus assumed)		
0,73 DF/F0	1240 nM	FLPGQFAFK-OH [compound 67]		
0,44 DF/F0	18600 nM	C[C@H](NC(=O)[C@H](Cc1c[nH]c2ccccc12)NC(=O)[C@H](CCC(N)=O)NC(=O)CNC(=O)[C@@H]1CCCN1C(=O)[C@H](Cc1c[nH]c2ccccc12)NC(=O)[C@@H](N)Cc1ccc(O)cc1)C(=O)N[C@H](Cc1ccccc1)C(=O)N[C@@H](CS)C(N)=O [compound 22] (H-YWPGQWA[dF]C-NH2; N-terminus assumed)		
0,61 DF/F0	21500 nM	CC(C)C[C@H](NC(=O)[C@@H](Cc1ccccc1)NC(=O)[C@H]1CCCN1C(=O)[C@H](CC(C)C)NC(=O)[C@H](C)NC(=O)[C@H](Cc1ccc(O)cc1)NC(=O)[C@H]1CCCN1C(=O)[C@H](CC(C)C)NC(=O)[C@H](N)Cc1ccccc1)C(=O)O [compound 118] (H-[dF]L[dP]YAL[dP][dF]L-OH; N-terminus assumed)		
1,24 DF/F0	2440 nM	C[C@H](NC(=O)[C@H](Cc1ccccc1)NC(=O)[C@@H](CCC(N)=O)NC(=O)CNC(=O)[C@H](Cc1ccccc1)NC(=O)[C@H](C)NC(=O)[C@@H](N)Cc1ccccc1)C(=O)N[C@@H](Cc1ccccc1)C(=O)N[C@H](CO)C(=O)O [compound 114] (H-FAFG[dQ]FAF[dS]-OH; N-terminus assumed)		
